The source of these data is PMC4702177, “Discovering new mTOR inhibitors for cancer treatment through virtual screening methods and in vitro assays” (Scientific Reports, 2016).

The subject of one experiment is C6 (Glioma cell). As to the kind of experiment: In vitro cell proliferation assay. It counts as cell-based. The following applies: C6 glioma, 48 h, highest concentration 100 μM, read-out: IC50 (anti-proliferative). The procedure:
(§1) Most human breast cancer cells and cervical cancer cells become resistant to current chemotherapeutic drugs due to mutation of apoptotic mechanisms. It has been reported that MCF-7 cells are resistant to most of the drugs approved by the US Food and Drug Administration (FDA), including paclitaxel, doxorubicin, 5-fluorouracil, etoposide, and camptothecin[31][32].
(§2) Cell proliferation was measured with an MTS assay (CellTiter 96 Aqueous ONE Solution kit; Promega, Madison, USA). MCF-7, HeLa, MGC-803, C6 and U87 cells in log-phase were seeded (5 × 10^3 cells/well) in 96-well plates for 24 h, and then the medium were replaced with fresh medium containing different concentrations of compounds. […] After incubation for 48 h, the cells were further incubated with 20 μL of MTS for 1–4 h at 37 °C in a humidified incubator with 5% CO2. The absorbance at 490 nm was measured using a mircoplate reader (Model680, Bio-Rad; Hercules, CA, USA). The inhibition rate (%) was calculated as equation (1): […]
(§3) IC50 values were determined from the results of at least three independent tests and calculated from the inhibition curves.

Experiment [1] relates to HeLa (human cervical cancer cell). The experiment is described as follows: In vitro cell proliferation assay. It counts as cell-based. To be noted: Homo sapiens, 48 h, highest concentration 100 μM, read-out: IC50 (anti-proliferative). The procedure:
as §1, §2, §3

Experiment [2] concerns MCF-7 (human breast cancer cell). As to the kind of experiment: In vitro cell proliferation assay. It is filed as cell-based. To be noted: Homo sapiens, MCF7, 48 h, 48 h, highest concentration 100 μM, read-out: IC50 (anti-proliferative). The procedure:
as §1, §2, §3

In experiment [3] the test system is MGC-803 (human gastric cancer). As to the kind of experiment: In vitro cell proliferation assay. The following applies: Homo sapiens, MGC-803, 48 h, 48 h, highest concentration 100 μM, read-out: IC50 (anti-proliferative). It is filed as cell-based. The procedure: as §1, §2, §3
The next experiment deals with HeLa cells. As to the kind of experiment: Quantification of apoptotic cells (Hoechst 33342 staining). It counts as cell-based, human. To be noted: 24 hours (control 1.9%). The procedure: To elucidate the mechanisms of cell death induced by 17, we analyzed the effect of 17 on nuclear morphology using Hoechst 33342 staining. […] This observation allowed for clear discrimination of treated cells from untreated non-apoptotic HeLa cells, which have a normal, round, and unpunctuated nucleus. […] The percentage of apoptotic HeLa cells were 6.5% and 7.7% at the concentrations of 2.74 and 5.48 μM, respectively (Fig. 6d). To further confirm the nuclear morphology observation, Western blotting was used to detect caspase-3 activation and PARP cleavage, two biochemical markers of apoptosis. […] The induction of apoptosis is positively correlated with the concentration of compound 17.
[…] Then, the cells were collected, washed with PBS, and fixed in 4% paraformaldehyde for 15 min at room temperature. Finally, the samples were stained with Hoechst33342 (10 μg/mL) for 5 min. Stained nuclei were photographed under a fluorescence microscope with a 20× objective (Nikon).

Experiment [4] deals with mTORC2 (Akt phosphorylation on Ser473) in HeLa cells. As to the kind of experiment: Western blot of mTORC2 activity. It counts as cell-based, human. How it is done: Accordingly, we checked mTORC2 activity by measuring Akt phosphorylation levels on Ser473 in HeLa cells. […] In other words, the mechanism of HeLa cell death induced by 17 was apoptosis, and induction was achieved by targeting both mTORC1 and mTORC2 simultaneously.
(§4) HeLa cells were cultured in a six-well plate in the presence of compound 17 for 48 h. Samples were prepared by lysing PBS-washed cells with RIPA buffer (Beyotime, Haimen, China) consisting of 1% Nonidet P-40, 0.5% sodium deoxycholate, 0.1% SDS, and 50 mM Tris-HCl, pH 7.4, supplemented with NaF, NaVO4, EDTA and a protease inhibitor cocktail (Roche). Proteins were subjected to SDS-PAGE gel electrophoresis and transferred onto a polyvinylidene difluoride membrane (Hybond-P; GE Healthcare Life Sciences, Piscataway, NJ). Immunoblotting was performed using rabbit monoclonal antibodies (Cell Signaling Technology; Danvers, MA) against p70S6K1 phosphorylated on Thr 389 (#9234) and total p70S6K1 (#2708), 4E-BP1 phosphorylated on Thr 37 (#2855) and total 4E-BP1 (#9452), Akt phosphorylated on Thr 308 (#4056) or Ser 473 (#4060) and total Akt (#4685), cleaved caspase-3 (#9664), PARP (#9532), and β-actin (#3700). […] The densitometry of each band was quantified by FluorChem 8000 (AlphaInnotech, San Leandro, CA).
(In general: A western blot detects proteins with antibodies after separation by electrophoresis.)

Experiment [5] deals with PI3K pathway (Akt phosphorylation on Thr308) in HeLa cells. As to the kind of experiment: Western blot of PI3K pathway. It is filed as cell-based, human. The following applies: compared with the controls. The procedure: To evaluate whether compound 17 inhibits the PI3K pathway, the Akt phosphorylation level on Thr308 was determined.
as §4

By IC50 is commonly meant the concentration that gives 50% inhibition.

For `Nc1nn2c(nc(N)c3c(N)n[nH]c32)c1/N=N/c1ccccc1` [Compound 17], the 50% inhibitory concentration (IC50) in the experiment with C6 (Glioma cell) came out at 11.1 µM; in experiment [1], 2.74 µM; in experiment [2], 1.9 µM; in experiment [3], 3.5 µM. Moreover, the “% of apoptotic cells” value with HeLa cells (2.74 μM) is given as 6.5%; in the experiment with HeLa cells (5.48 μM), 7.7%. Further, the “P-Akt Ser473” value in experiment [4] is on record as “can reduce P-Akt Ser473”. In experiment [5], the “P-Akt Thr308” value is “not affected”.
